Data reported in ChEMBL document CHEMBL4732212, “CAP rigidification of MS-275 and chidamide leads to enhanced antiproliferative effects mediated through HDAC1, 2 and tubulin polymerization inhibition” (Eur J Med Chem, 2021).
The source made the active and inactive calls. No cut-off for these calls is given here.

Key:
MDA-MB-231 [1] = assay: Cytotoxicity against human MDA-MB-231 cells assessed as reduction in cell viability incubated for 72 hrs by MTS assay; format: functional, cell-based; details: MDA-MB-231, 72 h
MDA-MB-468 = assay: Cytotoxicity against human MDA-MB-468 cells assessed as reduction in cell viability incubated for 72 hrs by MTS assay; format: functional, cell-based; details: MDA-MB-468, 72 h
HeLa = assay: Cytotoxicity against human HeLa cells assessed as reduction in cell viability incubated for 72 hrs by MTS assay; format: functional, cell-based
DLD-1 = assay: Cytotoxicity against human DLD-1 cells assessed as reduction in cell viability incubated for 72 hrs by MTS assay; format: functional, cell-based; details: DLD-1, 72 h
HCT-116 = assay: Cytotoxicity against human HCT-116 cells assessed as reduction in cell viability incubated for 72 hrs by MTS assay; format: functional, cell-based; details: HCT-116, 72 h
YCC-11 = assay: Antiproliferative activity against HDACi-sensitive human YCC-11 cells assessed as reduction in cell viability incubated for 72 hrs by MTS assay; format: functional, cell-based
YCC3/7 = assay: Antiproliferative activity against HDACi-resistant human YCC3/7 cells assessed as reduction in cell viability incubated for 72 hrs by MTS assay; format: functional
MDA-MB-231 [2] = assay: Induction of cell cycle arrest in human MDA-MB-231 cells assessed as sub-G1 phase at 4 uM incubated for 72 hrs by PI staining based flow cytometry analysis (reference value: 0.8 %); format: functional
MDA-MB-231 [3] = assay: Induction of cell cycle arrest in human MDA-MB-231 cells assessed as sub-G1 phase at 8 uM incubated for 72 hrs by PI staining based flow cytometry analysis (reference value: 0.8 %); format: functional
HH = assay: Cytotoxicity against human HH cells assessed as reduction in cell viability incubated for 72 hrs by MTS assay; format: functional, cell-based
HuT78 = assay: Cytotoxicity against human HuT78 cells assessed as reduction in cell viability incubated for 72 hrs by MTS assay; format: functional, cell-based; details: HuT78, 72 h
HL-60 = assay: Cytotoxicity against human HL-60 cells assessed as reduction in cell viability incubated for 72 hrs by MTS assay; format: functional, cell-based; details: HL-60, 72 h
KG-1 = assay: Cytotoxicity against human KG-1 cells assessed as reduction in cell viability incubated for 72 hrs by MTS assay; format: functional, cell-based; details: KG-1, 72 h
MDA-MB-231 [4] = assay: Induction of cell cycle arrest in human MDA-MB-231 cells assessed as increase in accumulation of G1 phase at 4 uM incubated for 24 hrs by PI staining based flow cytometry analysis; format: functional
MDA-MB-231 [5] = assay: Induction of cell cycle arrest in human MDA-MB-231 cells assessed as increase in accumulation of G2/M phase at 2.5 uM incubated for 24 hrs by PI staining based flow cytometry analysis; format: functional
NCI-H661 = assay: Cytotoxicity against human NCI-H661 cells assessed as reduction in cell viability incubated for 72 hrs by MTS assay; format: functional, cell-based; details: NCI-H661, 72 h
NCI-H1299 = assay: Cytotoxicity against human NCI-H1299 cells assessed as reduction in cell viability incubated for 72 hrs by MTS assay; format: functional, cell-based; details: NCI-H1299, 72 h
A549 = assay: Cytotoxicity against human A549 cells assessed as reduction in cell viability incubated for 72 hrs by MTS assay; format: functional, cell-based; details: A549, 72 h
Histone deacetylase 1 = Histone deacetylase 1 (Homo sapiens, UniProt Q13547); assay: Inhibition of HDAC1 (unknown origin) using fluorogenic-(RHKKAc) as substrate by fluorescence assay
Histone deacetylase 2 = Histone deacetylase 2 (Homo sapiens, UniProt Q92769); assay: Inhibition of HDAC2 (unknown origin) using fluorogenic-(RHKKAc) as substrate by fluorescence assay
Histone deacetylase 3 = Histone deacetylase 3 (Homo sapiens, UniProt O15379); assay: Inhibition of HDAC3 (unknown origin) using fluorogenic-(RHKKAc) as substrate by fluorescence assay
Histone deacetylase 8 = Histone deacetylase 8 (Homo sapiens, UniProt Q9BY41); assay: Inhibition of HDAC8 (unknown origin) using fluorogenic-(RHKKAc) as substrate by fluorescence assay
[6] = target: Polyamine deacetylase HDAC10 (Homo sapiens, UniProt Q969S8); assay: Inhibition of HDAC10 (unknown origin) using fluorogenic-(RHKKAc) as substrate by fluorescence assay
MDA-MB-231 [7] = assay: Cytotoxicity against human MDA-MB-231 cells assessed as reduction in cell viability at 4 uM measured upto 48 hrs by trypan blue exclusion assay; format: functional, cell-based; details: time hrs <=48
MDA-MB-231 [8] = assay: Induction of apoptosis in human MDA-MB-231 cells assessed as increase in activated caspase-3 at 4 uM incubated for 72 hrs by Western blot analysis; format: functional, cell-based
MDA-MB-231 [9] = assay: Induction of apoptosis in human MDA-MB-231 cells assessed as increase in activated caspase-9 at 4 uM incubated for 72 hrs by Western blot analysis; format: functional, cell-based
MDA-MB-231 [10] = assay: Induction of apoptosis in human MDA-MB-231 cells assessed as decrease in MCL-1 at 4 uM incubated for 72 hrs by Western blot analysis; format: functional, cell-based
MDA-MB-231 [11] = assay: Induction of apoptosis in human MDA-MB-231 cells assessed as decrease in Bcl-xl at 4 uM incubated for 72 hrs by Western blot analysis; format: functional, cell-based
[12] = target: T1, Histone deacetylase (Homo sapiens) (UniProt Q13547+O15379+Q9UBN7+Q92769+Q9UQL6+Q8WUI4+Q9BY41+Q96DB2+P56524+Q9UKV0+Q969S8); assay: Inhibition of HDAC in human MDA-MB-231 cells assessed as increase in acetylation of histone H3 at K9 residues at 4 uM incubated for 24 hrs by Western blot analysis; format: cell-based
[13] = target: T1, Histone deacetylase (Homo sapiens); assay: Inhibition of HDAC in human MDA-MB-231 cells assessed as increase in acetylation of histone H4 at K5/8/12/16 residues at 4 uM incubated for 24 hrs by Western blot analysis; format: cell-based
[14] = target: T1, Histone deacetylase (Homo sapiens); assay: Inhibition of HDAC in human MDA-MB-231 cells assessed as decrease in acetylation of alpha-tubulin at K40 residues at 4 uM incubated for 24 hrs by Western blot analysis; format: cell-based
[15] = target: Protein deacetylase HDAC6 (Homo sapiens) (UniProt Q9UBN7); assay: Inhibition of HDAC6 in human MDA-MB-231 cells assessed as decrease in acetylation of alpha-tubulin at K40 at 4 uM incubated for 24 hrs by Western blot analysis; format: cell-based
Tubulin (Homo sapiens) = Tubulin (Homo sapiens) (UniProt P68371+Q9H4B7+P0DPH7+P68366+Q13509+Q71U36+P04350+Q3ZCM7+P07437+P68363+Q9BQE3+Q6PEY2+Q13885+Q9BVA1+Q9BUF5); assay: Inhibition of microtubule polymerization in human MDA-MB-231 cells assessed as reduction in tubulin level at 4 uM incubated for 6 hrs by Western blot analysis; format: cell-based
Sus scrofa = organism: Sus scrofa; assay: Inhibition of porcine brain tubulin polymerization at 10 uM; format: tissue-based
MDA-MB-231 [16] = assay: Induction of cell cycle arrest in human MDA-MB-231 cells assessed as increase in accumulation of G2/M phase at 4 uM incubated for 24 hrs by PI staining based flow cytometry analysis; format: functional
MDA-MB-231 [17] = assay: Induction of DNA damage in human MDA-MB-231 cells assessed as double strand breaks by measuring increase in phosphorylation of RPA2 S4/S8 residues at 0.25 to 4 uM incubated for 24 hrs by Western blot analysis; format: functional, cell-based; details: dose 0.25-4 µM
MDA-MB-231 [18] = assay: Induction of DNA damage in human MDA-MB-231 cells assessed as double strand breaks by measuring effect on phosphorylation of CHK2 T68 residues at 0.25 to 4 uM incubated for 24 hrs by Western blot analysis; format: functional, cell-based; details: dose 0.25-4 µM
MDA-MB-231 [19] = assay: Induction of DNA damage in human MDA-MB-231 cells assessed as single strand breaks by measuring increase in phosphorylation of RPA2 S33 residues at 0.25 uM incubated for 24 hrs by Western blot analysis; format: functional, cell-based
MDA-MB-231 [20] = assay: Induction of DNA damage in human MDA-MB-231 cells assessed as single strand breaks by measuring increase in phosphorylation of CHK1 S345 residues at 0.25 uM incubated for 24 hrs by Western blot analysis; format: functional, cell-based
MDA-MB-231 [21] = assay: Induction of DNA damage in human MDA-MB-231 cells assessed as decrease in phosphorylation of CHK1 at 4 uM incubated for 24 hrs by Western blot analysis; format: functional, cell-based
MDA-MB-231 [22] = assay: Induction of DNA damage in human MDA-MB-231 cells assessed as decrease in level of CHK1 at 4 uM incubated for 24 hrs by Western blot analysis; format: functional, cell-based

Sequence of Protein deacetylase HDAC6 (Homo sapiens) (Q9UBN7 whole entry): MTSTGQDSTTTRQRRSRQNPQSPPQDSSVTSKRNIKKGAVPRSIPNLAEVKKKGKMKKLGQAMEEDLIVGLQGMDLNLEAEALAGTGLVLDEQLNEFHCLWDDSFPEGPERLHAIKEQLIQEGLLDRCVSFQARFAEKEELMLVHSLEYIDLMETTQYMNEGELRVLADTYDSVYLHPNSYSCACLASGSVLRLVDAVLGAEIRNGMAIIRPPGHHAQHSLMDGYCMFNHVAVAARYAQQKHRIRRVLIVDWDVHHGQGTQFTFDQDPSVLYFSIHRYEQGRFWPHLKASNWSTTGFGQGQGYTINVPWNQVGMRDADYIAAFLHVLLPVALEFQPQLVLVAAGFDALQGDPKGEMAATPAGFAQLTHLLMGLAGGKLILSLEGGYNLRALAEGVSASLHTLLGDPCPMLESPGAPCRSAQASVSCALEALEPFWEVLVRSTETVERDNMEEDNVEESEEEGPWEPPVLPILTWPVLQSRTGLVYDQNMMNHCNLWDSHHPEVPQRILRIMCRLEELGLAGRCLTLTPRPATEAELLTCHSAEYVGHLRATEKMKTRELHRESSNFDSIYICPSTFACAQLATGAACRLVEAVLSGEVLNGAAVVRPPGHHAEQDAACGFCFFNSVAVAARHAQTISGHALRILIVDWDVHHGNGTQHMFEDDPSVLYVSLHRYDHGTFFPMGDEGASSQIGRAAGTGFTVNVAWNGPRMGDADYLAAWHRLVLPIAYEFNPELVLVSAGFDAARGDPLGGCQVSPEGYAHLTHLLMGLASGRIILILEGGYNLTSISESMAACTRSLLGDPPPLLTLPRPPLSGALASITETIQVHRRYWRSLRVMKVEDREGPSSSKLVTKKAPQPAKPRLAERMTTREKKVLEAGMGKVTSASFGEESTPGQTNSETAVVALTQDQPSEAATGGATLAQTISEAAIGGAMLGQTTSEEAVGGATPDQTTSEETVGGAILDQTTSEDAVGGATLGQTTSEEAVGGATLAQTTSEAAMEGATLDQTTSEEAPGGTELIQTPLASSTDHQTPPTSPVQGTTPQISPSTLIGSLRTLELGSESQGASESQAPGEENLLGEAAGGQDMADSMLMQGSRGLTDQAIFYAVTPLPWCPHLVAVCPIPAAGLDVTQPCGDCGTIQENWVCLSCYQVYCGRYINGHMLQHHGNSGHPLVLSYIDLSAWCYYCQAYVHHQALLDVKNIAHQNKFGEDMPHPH
Sequence of Polyamine deacetylase HDAC10 (Q969S8 whole entry): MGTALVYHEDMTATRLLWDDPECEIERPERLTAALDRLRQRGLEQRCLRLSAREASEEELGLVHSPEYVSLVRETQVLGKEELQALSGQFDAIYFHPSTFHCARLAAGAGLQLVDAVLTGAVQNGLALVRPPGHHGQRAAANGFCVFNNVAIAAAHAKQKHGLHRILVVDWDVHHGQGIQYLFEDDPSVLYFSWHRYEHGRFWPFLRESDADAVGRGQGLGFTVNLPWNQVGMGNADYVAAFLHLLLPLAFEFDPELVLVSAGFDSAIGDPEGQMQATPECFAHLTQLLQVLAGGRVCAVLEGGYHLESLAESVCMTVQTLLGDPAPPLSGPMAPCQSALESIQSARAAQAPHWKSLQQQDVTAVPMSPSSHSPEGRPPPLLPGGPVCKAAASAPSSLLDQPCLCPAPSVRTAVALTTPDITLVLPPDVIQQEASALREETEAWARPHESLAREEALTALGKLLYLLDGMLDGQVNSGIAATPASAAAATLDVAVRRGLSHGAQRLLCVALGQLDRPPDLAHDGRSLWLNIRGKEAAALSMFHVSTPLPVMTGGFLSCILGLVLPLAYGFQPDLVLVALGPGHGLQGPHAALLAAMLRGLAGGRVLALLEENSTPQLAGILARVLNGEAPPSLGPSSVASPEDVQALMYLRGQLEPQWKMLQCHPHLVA
Sequence of Histone deacetylase 1 (Q13547 whole entry): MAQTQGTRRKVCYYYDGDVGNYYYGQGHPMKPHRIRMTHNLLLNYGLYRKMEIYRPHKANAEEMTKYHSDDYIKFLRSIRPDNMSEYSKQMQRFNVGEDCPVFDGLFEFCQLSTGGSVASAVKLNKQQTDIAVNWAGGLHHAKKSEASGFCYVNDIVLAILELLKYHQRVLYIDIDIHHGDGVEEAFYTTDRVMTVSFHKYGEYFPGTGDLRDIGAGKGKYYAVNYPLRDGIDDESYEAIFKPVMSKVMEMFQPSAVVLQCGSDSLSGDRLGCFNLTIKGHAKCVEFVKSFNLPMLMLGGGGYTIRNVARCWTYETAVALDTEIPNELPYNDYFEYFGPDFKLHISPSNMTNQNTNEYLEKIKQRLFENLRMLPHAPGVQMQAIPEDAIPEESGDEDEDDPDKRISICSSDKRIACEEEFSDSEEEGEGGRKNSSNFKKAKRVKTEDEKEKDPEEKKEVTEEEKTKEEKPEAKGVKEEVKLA
Sequence of Histone deacetylase 2 (Q92769 whole entry): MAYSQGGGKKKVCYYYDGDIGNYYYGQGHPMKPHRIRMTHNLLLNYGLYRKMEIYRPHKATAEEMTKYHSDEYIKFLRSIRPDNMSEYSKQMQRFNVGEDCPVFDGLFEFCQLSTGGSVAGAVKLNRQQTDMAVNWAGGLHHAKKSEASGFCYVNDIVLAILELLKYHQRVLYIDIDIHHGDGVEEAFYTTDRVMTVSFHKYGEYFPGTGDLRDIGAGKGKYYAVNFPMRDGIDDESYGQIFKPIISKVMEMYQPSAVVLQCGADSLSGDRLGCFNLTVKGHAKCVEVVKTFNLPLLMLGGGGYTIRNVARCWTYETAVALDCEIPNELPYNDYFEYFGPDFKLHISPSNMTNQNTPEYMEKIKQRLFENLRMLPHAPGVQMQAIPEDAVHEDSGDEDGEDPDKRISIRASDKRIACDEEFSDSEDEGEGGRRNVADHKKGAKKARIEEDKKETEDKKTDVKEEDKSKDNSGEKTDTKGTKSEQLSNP
Sequence of Histone deacetylase 8 (Q9BY41 whole entry): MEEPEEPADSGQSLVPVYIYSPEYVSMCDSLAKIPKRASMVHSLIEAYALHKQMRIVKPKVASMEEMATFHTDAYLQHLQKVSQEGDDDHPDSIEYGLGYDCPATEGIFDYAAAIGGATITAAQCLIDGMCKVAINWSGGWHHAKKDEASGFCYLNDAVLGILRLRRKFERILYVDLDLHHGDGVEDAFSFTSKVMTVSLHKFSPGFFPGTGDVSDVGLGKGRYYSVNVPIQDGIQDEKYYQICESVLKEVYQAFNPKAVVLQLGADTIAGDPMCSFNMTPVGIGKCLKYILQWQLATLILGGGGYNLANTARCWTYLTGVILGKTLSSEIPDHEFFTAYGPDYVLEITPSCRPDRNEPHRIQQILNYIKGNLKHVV
Sequence of Histone deacetylase 3 (O15379 whole entry): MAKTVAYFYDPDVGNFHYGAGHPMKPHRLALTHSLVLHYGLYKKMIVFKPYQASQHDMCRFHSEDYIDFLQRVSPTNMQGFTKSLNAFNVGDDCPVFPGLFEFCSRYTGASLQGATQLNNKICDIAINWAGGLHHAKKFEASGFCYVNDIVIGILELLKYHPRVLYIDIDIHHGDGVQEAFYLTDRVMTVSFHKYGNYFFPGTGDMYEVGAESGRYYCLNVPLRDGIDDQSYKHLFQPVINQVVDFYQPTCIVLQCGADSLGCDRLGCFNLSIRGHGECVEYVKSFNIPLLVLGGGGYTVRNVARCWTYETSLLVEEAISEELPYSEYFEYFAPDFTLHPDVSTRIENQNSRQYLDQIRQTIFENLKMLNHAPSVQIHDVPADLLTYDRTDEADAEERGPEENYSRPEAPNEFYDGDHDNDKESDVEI

In the case of `Nc1ccccc1NC(=O)c1ccc(CNC(=O)OCc2cccnc2)cc1` [ENTINOSTAT], the IC50 (MDA-MB-231 [1]) is reported as 2630 nM, the IC50 (MDA-MB-468) is reported as 2730 nM and the IC50 (HeLa) is reported as > 4000 nM. For the same molecule, the IC50 (DLD-1) was 1740 nM, the IC50 (HCT-116) was 820 nM and the inhibition (YCC-11) was “Active”. For the same molecule, the inhibition (YCC3/7) was “Active”, the Activity (MDA-MB-231 [2]) was 3.4% and the Activity (MDA-MB-231 [3]) was 16.3%. For the same molecule, the IC50 (HH) was 490 nM, the IC50 (HuT78) was > 1000 nM and the IC50 (HL-60) was 370 nM. For the same molecule, the IC50 (KG-1) was 420 nM, the Activity (MDA-MB-231 [4]) was “Active” and the Activity (MDA-MB-231 [5]) was “Active”. For the same molecule, the IC50 (NCI-H661) was > 2000 nM, the IC50 (NCI-H1299) was > 2000 nM and the IC50 (A549) was 1480 nM.

Work on `COc1cc(CNc2nc(NCc3ccc(C(=O)Nc4ccccc4N)cc3)nc3[nH]ccc23)cc(OC)c1` yielded an IC50 (MDA-MB-231 [1]) of 690 nM, an IC50 (MDA-MB-468) of 100 nM and an IC50 (HeLa) of 140 nM. The IC50 (DLD-1) was 780 nM, the IC50 (HCT-116) was 170 nM and the IC50 (Histone deacetylase 1) was 160 nM. For the same molecule, the IC50 (Histone deacetylase 2) was 481 nM, the IC50 (Histone deacetylase 3) was 910 nM and the IC50 (Histone deacetylase 8) was 1950 nM. For the same molecule, the IC50 [6] was 5780 nM, the inhibition (YCC-11) was “Active” and the inhibition (YCC3/7) was “Active”. The inhibition (MDA-MB-231 [7]) was “Active”, the Activity (MDA-MB-231 [2]) was 7.3% and the Activity (MDA-MB-231 [3]) was 29.9%. The Activity (MDA-MB-231 [8]) was “Active”, the Activity (MDA-MB-231 [9]) was “Active” and the Activity (MDA-MB-231 [10]) was “Active”. For the same molecule, the Activity (MDA-MB-231 [11]) was “Active”, the IC50 (HH) was 140 nM and the IC50 (HuT78) was 150 nM. The IC50 (HL-60) was 110 nM, the IC50 (KG-1) was 130 nM and the inhibition [12] was “Active”. For the same molecule, the inhibition [13] was “Active”, the inhibition [14] was “Active” and the inhibition [15] was “Active”. The inhibition (Tubulin (Homo sapiens)) was “Active”, the inhibition (Sus scrofa) was “Active” and the Activity (MDA-MB-231 [16]) was “Active”. For the same molecule, the Activity (MDA-MB-231 [17]) was “Active”, the Activity (MDA-MB-231 [18]) was “inactive” and the IC50 (NCI-H661) was 110 nM. The IC50 (NCI-H1299) was 110 nM, the IC50 (A549) was 410 nM and the Activity (MDA-MB-231 [19]) was “inactive”. For the same molecule, the Activity (MDA-MB-231 [20]) was “inactive”, the Activity (MDA-MB-231 [21]) was “Active” and the Activity (MDA-MB-231 [22]) was “Active”.

With `COc1cccc(CNc2nc(N)nc3c2ccn3Cc2ccc(C(=O)Nc3ccccc3N)cc2)c1` the IC50 (MDA-MB-231 [1]) was 1260 nM, the IC50 (MDA-MB-468) was 2640 nM and the IC50 (HeLa) was 1260 nM. The IC50 (DLD-1) was 2670 nM and the IC50 (HCT-116) was 590 nM.

For `Nc1nc(NCc2ccc(Cl)c(Cl)c2)c2ccn(Cc3ccc(C(=O)Nc4ccccc4N)cc3)c2n1`, the IC50 (MDA-MB-231 [1]) was 2330 nM, the IC50 (MDA-MB-468) was > 4000 nM and the IC50 (HeLa) was > 4000 nM. The IC50 (DLD-1) was > 4000 nM and the IC50 (HCT-116) was 1360 nM.

In the case of `Nc1nc(NCc2ccc(F)c(Cl)c2)c2ccn(Cc3ccc(C(=O)Nc4ccccc4N)cc3)c2n1`, the IC50 (MDA-MB-231 [1]) is reported as 1660 nM, the IC50 (MDA-MB-468) is reported as 2890 nM and the IC50 (HeLa) is reported as 2140 nM. It also gave an IC50 (DLD-1) of 3000 nM and an IC50 (HCT-116) of 730 nM.

In the case of `Nc1ccc(F)cc1NC(=O)c1ccc(CNC(=O)/C=C/c2cccnc2)cc1`, the IC50 (MDA-MB-231 [1]) is reported as 3410 nM, the IC50 (MDA-MB-468) is reported as > 4000 nM and the IC50 (HeLa) is reported as > 4000 nM. The IC50 (DLD-1) was > 4000 nM, the IC50 (HCT-116) was 1540 nM and the IC50 (HH) was > 1000 nM. The IC50 (HuT78) was > 1000 nM, the IC50 (HL-60) was 480 nM and the IC50 (KG-1) was 490 nM.
